Structures can show the parent of a compound that is named as a salt.
How the values were obtained:
[1] = test system: rats trained to discriminate methamphetamine from saline; experiment: Drug discrimination (methamphetamine versus saline); format: in vivo; settings: 0.1-3.2 mg/kg i.p. or 0.32-10 mg/kg p.o.
Text: Drug discrimination is an operant paradigm that enables assessment of drug abuse liability (Yasar & Bergman, 1994. Amphetamine-like effect of 1-deprenyl (selegiline) in drug discrimination studies. Clin. Pharmacol. Therap. 56 (S78), 768-773). In this paradigm, psychostimulant properties of compounds may be determined in rats trained to discriminate methamphetamine from saline. Hungry rats are initially placed in a test apparatus where they learn that pressing either of two levers results in delivery of a food pellet. […]. On other days, rats are pretreated with vehicle, and must then select the opposite lever in order to obtain food. In this way, rats must learn to use the interoceptive cues generated by the psychostimulant drug to guide its choice of levers. Once lever pressing to a predetermined criterion has been established, a test compound can be administered. […]. If the rat chooses the methamphetamine lever, the test drug is said to have shown stimulus generalization; that is, it is perceived to be methamphetamine-like by the rat. […].

male Wistar rats = experiment: Wake promotion, EEG/EMG sleep-wake monitoring (SCORE2004); settings: for duration of wakefulness (total minutes of sleep loss): dosed at CT-5, various dose ranges
Procedure: Test compounds in various dose ranges or vehicle were administered to male Wistar rats 5 hours after lights on (CT-5). EEG, EMG, locomotor activity, drink- and food-related activity, and body temperature were concurrently monitored for 30 hr before and after treatment from rats living in separate isolated recording chambers.

[2] = test system: scopolamine model of passive avoidance; experiment: Scopolamine model of passive avoidance; format: in vivo, rats; settings: 8 and 12 mg/kg i.p. 30 minutes before training; scopolamine 0.2 mg/kg s.c.; p<0.01
Procedure: Prior to training, rats were injected with scopolamine hydrobromide (0.2 mg/kg, s.c, 40 minutes before training) and with either saline or compound 4a (8, 12, 16 or 24 mg/kg, i.p, 30 minutes prior to training). The animals received a retention test 24 hours following training. The retention test was identical to training except that no foot-shock or drug was delivered. Latency to enter the dark chamber was recorded.

[3] = target: Recombinant human cholinesterase (Homo sapiens, UniProt P22303); experiment: Amphetamine release from inhibited enzyme, LC/MS/MS; format: biochemical
[4] = target: T1, BuChE (human, purified from) (Homo sapiens, UniProt P06276); experiment: In vitro inhibition of BuChE, modified Ellman procedure; format: biochemical; settings: purified human butyrylcholinesterase (plasma); mean of two or three independent experiments; read-out: hBuChE IC50
T1 construct: BuChE (human, purified from erythrocytes); from tissue

[5] = test system: total brain cholinesterase; experiment: In vivo inhibition of brain cholinesterase after oral dosing; set-up: species or system rats
Procedure: (§1) Following administration, rats were sacrificed and blood and brain samples were collected, processed and ChE activity was determined spectrophotometrically as described above.

[6] = Maximum Tolerated Dose determination
Procedure: The in vivo effectiveness of the stigmine compounds in vivo inhibitors was evaluated. Initially, the Maximum Tolerated Dose (MTD) was determined for each compound. The MTD was defined as the dose at which clear, yet reversible and non-life threatening cholinergic effects were observed.
as §1

rhAChE [7] = target: T2, rhAChE (Homo sapiens, UniProt P22303); settings: for IC50: read-out: rhAChE IC50
rhAChE [8] = target: T2, rhAChE; experiment: Decarbamylation / reconstitution of inhibited enzyme; format: biochemical; settings: for Decarbamylation rate k: phosphate buffer, 37° C., first-order model
Procedure: Next, the release of amphetamine from inhibited cholinesterase was investigated indirectly by monitoring reconstitution of enzyme activity as described above. […] The enzyme was separated from small organic molecules (carbamate and possible degradation products) by size exclusion chromatography over a Sephadex column. Purified, inhibited enzyme was incubated in phosphate buffer at 37° C., aliquots were drawn at various time points and the enzymatic activity was determined as described above. The data were plotted as the natural logarithm of the percent inhibition versus time according to a first-order kinetics model. The decarbamylation rate constant k was determined as the slope of this line. The halflife t1/2 is directly related to k (k=−ln(0.500)/t1/2).

[9] = test system: total plasma cholinesterase; experiment: In vivo inhibition of plasma cholinesterase after oral dosing; set-up: species or system rats
Procedure: as §1

[10] = Hygroscopicity testing and sorption isotherm; format: physicochemical; settings: for hygroscopicity testing, appearance: sulfate after 3 days, fumarate after 7 days
[11] = Mechanical stress (micronizing); format: physicochemical; settings: micronizing 20 minutes at 30 Hz, after standing 20 minutes; ball mill stress
Text: FIG. 13 is two microscopic views of the hydrogen fumarate salt of compound 3d under mechanical stress.

[12] = Solid state and solution stability; settings: for solid state stability to heat: 40° C. for 7 days; for solid state stability to UV: 220 W-h/m^2; for solid state stability to visible light: visible light exposure, 7.3×10^6 lux hours
[13] = Solubility (formulation studies)
[14] = 60 minutes after oral dosing at MTD or highest dose tested, n = 4
[15] = oral dosing at MTD, mean of three measurements between 30 and 180 min following dosing

T1 sequence (P06276 29-602): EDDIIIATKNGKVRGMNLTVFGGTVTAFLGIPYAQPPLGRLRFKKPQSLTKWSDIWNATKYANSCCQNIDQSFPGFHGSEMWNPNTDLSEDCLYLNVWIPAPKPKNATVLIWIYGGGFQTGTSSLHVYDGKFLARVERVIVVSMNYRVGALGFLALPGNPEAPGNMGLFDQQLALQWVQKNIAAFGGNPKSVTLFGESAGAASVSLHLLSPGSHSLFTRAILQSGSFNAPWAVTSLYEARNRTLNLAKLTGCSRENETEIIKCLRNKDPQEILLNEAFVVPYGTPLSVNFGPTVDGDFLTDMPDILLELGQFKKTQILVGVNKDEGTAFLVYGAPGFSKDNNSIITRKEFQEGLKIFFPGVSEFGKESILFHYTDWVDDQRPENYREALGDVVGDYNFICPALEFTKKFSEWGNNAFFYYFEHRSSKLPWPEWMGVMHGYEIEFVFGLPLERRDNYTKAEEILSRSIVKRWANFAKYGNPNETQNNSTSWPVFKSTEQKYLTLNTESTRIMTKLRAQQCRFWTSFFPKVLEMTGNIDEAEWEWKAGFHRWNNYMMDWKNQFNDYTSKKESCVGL
T2 sequence (P22303 32-614): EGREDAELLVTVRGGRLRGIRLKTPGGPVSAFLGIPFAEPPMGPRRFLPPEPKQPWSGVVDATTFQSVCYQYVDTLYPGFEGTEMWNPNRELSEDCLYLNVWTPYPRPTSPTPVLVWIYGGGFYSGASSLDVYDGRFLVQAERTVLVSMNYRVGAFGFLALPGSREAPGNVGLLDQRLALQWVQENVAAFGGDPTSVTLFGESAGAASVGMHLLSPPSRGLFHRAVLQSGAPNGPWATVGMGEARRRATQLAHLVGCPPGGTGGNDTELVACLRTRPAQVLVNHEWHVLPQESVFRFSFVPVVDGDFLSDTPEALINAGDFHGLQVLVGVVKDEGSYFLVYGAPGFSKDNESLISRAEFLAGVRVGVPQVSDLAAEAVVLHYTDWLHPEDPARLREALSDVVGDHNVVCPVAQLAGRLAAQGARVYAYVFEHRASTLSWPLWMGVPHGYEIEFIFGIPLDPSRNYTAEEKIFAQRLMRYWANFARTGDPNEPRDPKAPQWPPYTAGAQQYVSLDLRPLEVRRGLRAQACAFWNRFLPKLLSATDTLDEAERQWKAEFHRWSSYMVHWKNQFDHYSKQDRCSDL
Recombinant human cholinesterase, sequence (P22303 32-614): as above

SMILES: C[C@H](Cc1ccccc1)N(C)C(=O)Oc1cccc([C@H](C)N(C)C)c1 [Compound B, s-riva-l-methamphetamine]
- stimulus generalization to methamphetamine (lever selection) [1]: did not select the methamphetamine lever
- duration of wakefulness (total minutes of sleep loss) (male Wistar rats): dose-related increase in wakefulness
- rebound hypersomnolence (male Wistar rats; following administration): not observed
- body temperature (male Wistar rats; rat, in vivo): reduction in body temperature
- locomotor activity (male Wistar rats; rat, in vivo): did not cause locomotor hyperactivity
- increase in wakefulness compared with reference compounds (male Wistar rats; versus d-amphetamine, rivastigmine, modafinil): surpassed that seen with the reference compounds tested

SMILES: NC(=O)C[S+]([O-])C(c1ccccc1)c1ccccc1 (centres unmarked) [modafinil, reference compound]
- duration of wakefulness (total minutes of sleep loss) (male Wistar rats): increased the duration of wakefulness

SMILES: C[C@@H](Cc1ccccc1)NC(=O)Oc1cccc([C@H](C)N(C)C)c1 [Compound 4a]
- scopolamine-induced amnesia, step-through latency at 24 h retention test [2]: alleviated
- d-amphetamine in decarbamylation aliquots ([3]; aliquots drawn 4 h later): 53 ng/mL
- amphetamine in decarbamylation aliquots ([3]; aliquots drawn at t=0): did not contain amphetamine
- IC50 [4]: 7320 nM
- Brain ChEI [5, 14]: 72%
- MTD ([6]; rat, in vivo, po): > 100 mg/kg
- more selective for AChE than rivastigmine (rhAChE [7]): 225 fold
- IC50 (rhAChE [7]): 508 nM
- enzyme reconstitution (rhAChE [8]; at 4 h): 80%
- Decarbamylation rate k (rhAChE [8]): 0.558 h⁻¹
- Plasma ChEI [9, 14]: 59%

SMILES: C[C@H](Cc1ccccc1)N(C)C(=O)Oc1cccc([C@H](C)N(C)C)c1 [hydrogen sulfate salt of compound 3d, 3-(S)-1-(Dimethylamino)ethyl)phenyl methyl-((R)-1-phenylpropan-2 yl)carbamate Hydrogen Sulfate]
- hygroscopicity testing, appearance ([10]; 40° C./75 RH): deliquesces

SMILES: C[C@@H](Cc1ccccc1)NC(=O)Oc1cccc([C@H](C)N(C)C)c1 [C, s-riva-d-amphetamine]
- duration of wakefulness (total minutes of sleep loss) (male Wistar rats): dose-related increase in wakefulness

SMILES: CCN(C)C(=O)Oc1cccc([C@H](C)N(C)C)c1 [Rivastigmine, rivastigmine, reference compound]
- Brain ChEI [5, 15]: 56%
- MTD ([6]; oral, dose with clear, reversible, non-life threatening cholinergic effects, or highest dose tested): 5 mg/kg
- duration of wakefulness (total minutes of sleep loss) (male Wistar rats): increased wakefulness
- Plasma ChEI [9, 15]: 39%

SMILES: C[C@H](Cc1ccccc1)NC(=O)Oc1cccc([C@H](C)N(C)C)c1 [Compound A, s-riva-l-amphetamine]
- duration of wakefulness (total minutes of sleep loss) (male Wistar rats): dose-related increase in wakefulness

SMILES: C[C@H](Cc1ccccc1)N(C)C(=O)Oc1cccc([C@H](C)N(C)C)c1.O=C(O)/C=C/C(=O)O [hydrogen fumarate salt of compound 3d, 3-((S)-1-(Dimethylamino)ethyl)phenyl methyl-((R)-1-phenylpropan-2 yl)carbamate Hydrogen Fumarate]
- mechanical stress [11]: gumming
- hygroscopicity testing, appearance ([10]; 40° C./75 RH): solid
- hygroscopicity, analysis by microscopy ([10]; after 7 days at 75% relative humidity): remains crystalline with traces of amorphous material
- solid state stability to heat [12]: stable
- solid state stability to UV [12]: stable
- chemical stability in water ([12]; up to 7 days at 40° C.): stable
- solid state stability to visible light [12]: stable

SMILES: C[C@@H](c1cccc(OC(=O)N(C)[C@@H](C)Cc2ccccc2)c1)N(C)C [Compound 4c]
- IC50 [4]: 334 nM
- Brain ChEI [5, 14]: 50%
- MTD ([6]; rat, in vivo, po): > 64 mg/kg
- Decarbamylation rate k (rhAChE [8]): 0.003 h⁻¹
- Plasma ChEI [9, 14]: 50%

SMILES: C[C@H](Cc1ccccc1)NC(=O)Oc1cccc([C@H](C)N(C)C)c1 [Compound 4b]
- IC50 [4]: 416 nM
- Brain ChEI [5, 14]: 25%
- MTD ([6]; rat, in vivo, po): 32 mg/kg
- IC50 (rhAChE [7]): 404 nM
- Decarbamylation rate k (rhAChE [8]): 0.057 h⁻¹
- Plasma ChEI [9, 14]: 26%

SMILES: C[C@H](N)Cc1ccccc1 [d-amphetamine, reference compound]
- duration of wakefulness (total minutes of sleep loss) (male Wistar rats): increased the duration of wakefulness

SMILES: C[C@@H](c1cccc(OC(=O)N(C)[C@@H](C)Cc2ccccc2)c1)N(C)C [D, s-riva-d-methamphetamine]
- duration of wakefulness (total minutes of sleep loss) (male Wistar rats): dose-related increase in wakefulness

SMILES: CC(c1cccc(OC(=O)N(C)C(C)Cc2ccccc2)c1)N(C)C (centres unmarked) [Compound 4d]
- IC50 [4]: 24400 nM
- Brain ChEI [5, 14]: 64%
- MTD ([6]; rat, in vivo, po): 10 mg/kg
- Decarbamylation rate k (rhAChE [8]): 0.011 h⁻¹
- Plasma ChEI [9, 14]: 45%

SMILES: C[C@H](Cc1ccccc1)N(C)C(=O)Oc1cccc([C@H](C)N(C)C)c1 [Compound 3d, 3-((S)-1-(dimethylamino)ethyl)phenyl methyl-((R)-1-phenylpropan-2 yl)carbamate]
- solubility ([13]; pH 3, aqueous buffer): > 50 mg/mL
- solubility ([13]; sixteen vehicles for oral dosing (rodents), aqueous with cosolvent or surfactant or cyclodextrin): > 50 mg/mL
- mechanical stress [11]: instability to extreme thermal conditions
- hygroscopicity testing by DSC and XRPD ([10]; 40° C./75 RH, 7 days): stability over 7 days
- maximum moisture uptake (sorption isotherm) ([10]; at 75 RH): about 1%
- solid state stability to heat [12]: stable
- solid state stability to UV [12]: stable
- solution stability ([12]; pH 4, 5, 6, after 7 days, HPLC recovery): stable
- solid state stability to visible light [12]: no change
